# US20220282304A1, “SAME-SAMPLE ANTIBIOTIC SUSCEPTIBILITY TEST AND RELATED COMPOSITIONS, METHODS AND SYSTEMS” (CALIFORNIA INSTITUTE OF TECHNOLOGY, priority 2021, published 2022)
# Test system: carbapenem-resistant Escherichia coli isolate
# Assay: Digital same-sample filtration AST, one treated and one concurrent reference condition (Example 6)
# Format: cell-based
# Experimental: The inoculum was small enough that no detectable difference in the sample's optical density at 600 mm (OD600) was detectable by a spectrophotometer with a sensitivity of 0.01 absorbance units. The OD600 of the culture measured every 30 minutes after the culture was incubated at 37° C. to calculate the doubling time of the strain. The media became turbid with an OD600 of 0.28 absorbance units after 3.1 hours of incubation.
# In this experiment, the number and volume of sample partitions was restricted, for logistical reasons, to 96 partitions 10 μL, in volume, specifically the wells of a 96-well plate. A goal was chosen of having a >98% chance of ending up with at least 48 empty partitions. When all partitions are the same volume, the following formula relates the expected number of empty partitions, the partition volume, and the density of cells.
# N is the total number of partitions, n is the number of empty partitions, V is the partition volume, D is the density of cells, and t is a threshold probability chosen by the practitioner. Thus, in order to achieve digital sample partitioning with the available 96-well plate, the contrived clinical specimen was diluted to a cell density of 0.0375 cells/μL. Each 10 μL sample of the specimen would then contain 0.375 cells on average.
# To begin the AST protocol, the contrived clinical sample was physically split into the 96 partitions by transferring 10 μL of the sample, in 96 separate transfers (actually 12 transfers with a multichannel pipette), to 96 wells of a microtiter plate. Each well contained 15 μL of Mueller-Hinton Broth (MHB) growth media. Half of the wells (48) contained 0 μg/mL of dissolved ETP antibiotic and served as reference condition antibiotic exposures. The other half of the wells contained 1.67 μg/mL of ETP (for a final concentration of 1.0 μg/mL) and served as 48 treated condition antibiotic exposures.
# The 96 antibiotic exposures were incubated at 37° C. for 40 minutes.
# The entire volume of each antibiotic exposure was transferred to a Millipore® 96-well sterile polystyrene MultiScreenHTS® filter plate (Millipore-Sigma MSGVS2210). Each well of the filter plate contained a hydrophilic polyvinylidene fluoride (PVDF) filter membrane with a 0.22 μm pore size. The antibiotic exposures were centrifuged at 2200 relative centrifugal force to speed the passage of the antibiotic exposure through the filter and into 96 collecting vessels. The collected fluid was called the “filtrate.” It is expected that the filtrate will contain all or most of the extracellular nucleic acids present in the antibiotic exposure, but none of the intracellular nucleic acids in the antibiotic exposure.
# 50 μL of fresh MHB media was spun through the filters after the first centrifugation (above) to wash away residual extracellular nucleic acids present in the fluid wetting the filters. This wash fluid is not collected with the filtrates.
# 10 μL of each of the filtrates was added to and mixed with 10 μL of Lucigen DNA Extraction Buffer, heated to 65° C. for 6 minutes, then heated to 98° C. for 4 minutes to create extracted filtrates.
# 20 μL of DNA Extraction Buffer was placed into all of the wells of the filter plate, on top of the filters. The filter plate was heated to 65° C. for 6 minutes, shaking at 700 rpm, on a ThermoMixer® flat surface heating block. Then, the filter plate was taped to a clean 96-well polypropylene microtiter plate and centrifuged at 2000 rcf for 2 minutes. The DNA Extraction Buffer fluid that flowed through the filter was collected in the microtiter plate below the filter plate. Next, the microtiter plate was heated to 98° C. for 4 minutes inside a BioRad thermocycler. These collected and heated fluid volumes are termed the “extracted lysate”. […]
# [1] = 1.0 μg/mL ETP, 40 minutes, assuming exponential division, doubling time approximately 30 minutes
# [2] = 1.0 μg/mL ETP, 40 minutes, simple estimate
# [3] = Treated 1.0 μg ETP, 40 minutes 37° C., 48 partitions, ddPCR
smiles,measurement,setting,value
"C[C@@H](O)[C@H]1C(=O)N2C(C(=O)O)=C(S[C@@H]3CN[C@H](C(=O)Nc4cccc(C(=O)O)c4)C3)[C@H](C)[C@H]12 [ETP, ertapenem]","treated EINAPV (fraction extracellular), alternative estimate","1.0 μg/mL ETP, 40 minutes, alternative cell estimate, reference EINAPV 1/6",1/7
same,intact cells in treated condition (alternative estimate),[1],6
same,killed cells in treated condition (alternative estimate),[1],1
same,susceptibility call,"1.0 μg/mL ETP, 40 minutes, p-value vs 0.05 threshold",resistant
same,intact cells in treated condition at time of filtration (estimate),[2],3
same,killed cells in treated condition at time of filtration (estimate),[2],1
same,treated EINAPV (fraction extracellular),"1.0 μg/mL ETP, 40 minutes, simple estimate, reference EINAPV 1/4",1/4
same,Both (number of wells),[3],0
same,Empty (number of wells),[3],44
same,Extracellular only (number of wells),[3],1
same,Intracellular only (number of wells),[3],3
